The target of this test is T1, human NaV1.6 (hNaV1.6) (Homo sapiens, UniProt Q9UQD0).
T1 construct: expressed in transfected cells; host or cells: HEK-293
T1 sequence (Q9UQD0 whole entry): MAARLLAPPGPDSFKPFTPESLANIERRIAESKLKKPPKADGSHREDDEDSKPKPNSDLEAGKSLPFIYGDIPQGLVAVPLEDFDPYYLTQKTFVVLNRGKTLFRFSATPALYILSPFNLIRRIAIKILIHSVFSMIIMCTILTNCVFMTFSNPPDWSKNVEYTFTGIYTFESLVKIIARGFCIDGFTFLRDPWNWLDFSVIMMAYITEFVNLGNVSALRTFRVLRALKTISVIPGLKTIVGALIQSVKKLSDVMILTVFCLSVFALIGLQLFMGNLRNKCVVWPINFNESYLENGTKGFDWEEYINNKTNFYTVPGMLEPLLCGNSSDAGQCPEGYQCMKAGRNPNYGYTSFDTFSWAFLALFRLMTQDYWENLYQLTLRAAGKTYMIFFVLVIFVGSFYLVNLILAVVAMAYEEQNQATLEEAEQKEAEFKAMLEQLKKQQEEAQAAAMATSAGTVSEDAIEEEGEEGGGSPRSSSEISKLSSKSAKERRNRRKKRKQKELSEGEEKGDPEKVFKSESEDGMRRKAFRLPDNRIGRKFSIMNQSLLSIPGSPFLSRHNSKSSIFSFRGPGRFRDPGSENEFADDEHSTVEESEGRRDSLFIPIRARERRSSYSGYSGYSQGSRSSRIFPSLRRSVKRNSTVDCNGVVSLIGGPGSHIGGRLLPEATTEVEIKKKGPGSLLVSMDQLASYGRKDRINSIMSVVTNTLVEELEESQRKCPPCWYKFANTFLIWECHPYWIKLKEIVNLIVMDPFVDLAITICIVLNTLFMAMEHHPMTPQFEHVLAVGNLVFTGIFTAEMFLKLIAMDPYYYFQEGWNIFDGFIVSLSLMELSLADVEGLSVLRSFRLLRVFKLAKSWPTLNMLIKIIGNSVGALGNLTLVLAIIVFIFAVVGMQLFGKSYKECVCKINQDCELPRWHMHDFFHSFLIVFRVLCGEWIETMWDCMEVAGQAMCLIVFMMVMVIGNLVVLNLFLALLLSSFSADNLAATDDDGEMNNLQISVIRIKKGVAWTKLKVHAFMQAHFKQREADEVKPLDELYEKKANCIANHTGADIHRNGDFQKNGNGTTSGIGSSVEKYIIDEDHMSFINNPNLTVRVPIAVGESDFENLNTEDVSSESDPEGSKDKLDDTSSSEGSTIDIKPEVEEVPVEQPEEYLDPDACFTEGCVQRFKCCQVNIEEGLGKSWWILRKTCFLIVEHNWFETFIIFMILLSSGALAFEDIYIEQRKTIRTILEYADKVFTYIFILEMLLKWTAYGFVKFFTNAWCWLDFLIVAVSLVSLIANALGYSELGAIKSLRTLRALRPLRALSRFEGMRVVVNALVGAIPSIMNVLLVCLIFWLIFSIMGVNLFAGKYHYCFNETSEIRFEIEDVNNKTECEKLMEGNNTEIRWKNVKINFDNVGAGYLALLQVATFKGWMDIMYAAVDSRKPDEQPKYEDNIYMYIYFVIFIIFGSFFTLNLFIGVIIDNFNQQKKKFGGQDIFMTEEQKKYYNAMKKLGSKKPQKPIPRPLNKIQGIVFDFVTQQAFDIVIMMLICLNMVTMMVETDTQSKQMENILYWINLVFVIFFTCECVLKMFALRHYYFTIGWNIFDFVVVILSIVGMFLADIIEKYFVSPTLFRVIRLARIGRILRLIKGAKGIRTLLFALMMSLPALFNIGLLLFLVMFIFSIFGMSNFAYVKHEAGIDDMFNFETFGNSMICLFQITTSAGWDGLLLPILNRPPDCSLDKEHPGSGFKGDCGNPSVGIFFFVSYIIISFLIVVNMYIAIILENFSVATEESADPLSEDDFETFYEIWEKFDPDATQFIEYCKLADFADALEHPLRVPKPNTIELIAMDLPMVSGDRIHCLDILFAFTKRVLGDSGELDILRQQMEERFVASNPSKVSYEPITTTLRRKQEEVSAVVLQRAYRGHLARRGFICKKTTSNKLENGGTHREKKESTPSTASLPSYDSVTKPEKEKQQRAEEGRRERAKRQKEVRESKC
Description: Modulation of late sodium current (INaL) at hNaV1.6, PatchXpress electrophysiology. The conditions noted are these: HEK293, HEK-293 cells expressing recombinant human NaV 1.6, late current evoked by 300 nM ATX-II, read-out: NaV 1.6 Assay Data (percent inhibition of INaL at hNaV1.6). The test is classed as cell-based. The procedure:
Functional characterization of exemplary compounds to modulate INaL expressed by the NaV1.6 voltage-gated sodium channel was accomplished using the PatchXpress™ high throughput electrophysiology platform (Molecular Devices, Sunnyvale, CA). HEK-293 cells expressing recombinant, human NaV1.6 (hNaV1.6) were grown in DMEM/high-glucose Dulbecco's modified, 10% FBS, 2 mM sodium pyruvate, 10 mM HEPES and 400 μg/mL G418. Cells were grown to 50%-80% confluency prior to harvesting. Trypsinized cells were washed, allowed to recover for 1 hour and then resuspended in extracellular recording solution at a concentration of 1×10^6 cells/ml. The onboard liquid handling facility of the PatchXpress was used for dispensing cells and applying test compounds. NaV late currents were evoked by the application of 300 nM ATX-II. INaL was evoked by depolarizing pulses to 0 mV for 200 ms from a non-inactivating holding potential (e.g., −120 mV) at a frequency of 0.1 Hz. INaL amplitude and stability were determined by analyzing the mean current amplitude over the final 20 ms of the test pulse. Following steady state block with exemplary compounds (e.g., as described herein), a Na+ free solution containing an impermeant cation (e.g., Choline or NDMG) was added to confirm the identity of the sodium current. Percent steady-state inhibition of INaL was calculated as: […], where INaL_compound and INaL_control represent INaL recorded in the presence or absence of compound, respectively.
Results from this assay relating to percent inhibition of INaL at hNaV1.6 (measured using a procedure similar to described above but using HEK-293 cells expressing recombinant, human NaV 1.6 (h NaV 1.6) at 1 μM are summarized in Table 1 below. In this table, “A” indicates inhibition of less than 30%; “B” indicates inhibition of between about 30% to about 70%; and “C” indicates inhibition of greater than 70%. “N/A” indicates not available.
As usually defined, the inhibition is the relative decrease from the control value, in per cent. Consider `COC(C)(C)c1nnc2cnc(-c3ccc(OC(C)C(F)(F)F)nc3)cn12` (racemic) [Compound II-6, 3-(1-methoxy-1-methyl-ethyl)-6-[6-[rac-(1R)-2,2,2-trifluoro-1-methyl-ethoxy]-3-pyridyl]-[1,2,4]triazolo[4,3-a]pyrazine], for which the inhibition at 1 µM is under 30%.

As for `CO[C@H](C)c1nnc2cnc(-c3cnc(OC(C)(C)C(F)(F)F)c(F)c3)cn12` (single isomer, unassigned) [Compound I-1], the inhibition at 1 µM was over 70%.

As for `CO[C@@H](C)c1nnc2cnc(-c3cnc(OC(C)(C)C(F)(F)F)c(F)c3)cn12` (single isomer, unassigned) [Compound I-2], the inhibition at 1 µM was 30 to 70%.

For `CO[C@H](C)c1nnc2cnc(-c3cnc(OC4(C(F)(F)F)CCC4)c(F)c3)cn12` (single isomer, unassigned) [Compound I-3], the inhibition at 1 µM is 30 to 70%.

With `CO[C@@H](C)c1nnc2cnc(-c3cnc(OC4(C(F)(F)F)CCC4)c(F)c3)cn12` (single isomer, unassigned) [Compound I-4], the inhibition at 1 µM lay in the range of 30 to 70%.

Take `CO[C@@H](C)c1nnc2cnc(-c3ccc(OC4(C(F)(F)F)CCC4)nc3)cn12` (single isomer, unassigned) [Compound I-5]: the inhibition at 1 µM fell in the range of 30 to 70%.

Turning to `CO[C@H](C)c1nnc2cnc(-c3ccc(OC4(C(F)(F)F)CCC4)nc3)cn12` (single isomer, unassigned) [Compound I-6], the inhibition at 1 µM lay in the range of 30 to 70%.

As for `CO[C@H](C)c1nnc2cnc(-c3ccc(OC(C)(C)C(F)(F)F)nc3)cn12` (single isomer, unassigned) [Compound I-9], the inhibition at 1 µM lay in the range of 30 to 70%.

For the compound `CO[C@@H](C)c1nnc2cnc(-c3ccc(OC(C)(C)C(F)(F)F)nc3)cn12` (single isomer, unassigned) [Compound I-10], the inhibition at 1 µM was 30 to 70%.

With `CO[C@H](C)c1nnc2cnc(-c3cnc(O[C@H](C4CC4)C(F)(F)F)c(F)c3)cn12` (single isomer, unassigned) [Compound I-15], the inhibition at 1 µM fell in the range of 30 to 70%.

In the case of `CO[C@@H](C)c1nnc2cnc(-c3cnc(O[C@H](C4CC4)C(F)(F)F)c(F)c3)cn12` (single isomer, unassigned) [Compound I-16], the inhibition at 1 µM was in the range of 30 to 70%.

On to `CO[C@H](C)c1nnc2cnc(-c3cnc(O[C@@H](C4CC4)C(F)(F)F)c(F)c3)cn12` (single isomer, unassigned) [Compound I-17], for which the inhibition at 1 µM was under 30%.

As for `CO[C@@H](C)c1nnc2cnc(-c3cnc(O[C@@H](C4CC4)C(F)(F)F)c(F)c3)cn12` (single isomer, unassigned) [Compound I-18], the inhibition at 1 µM fell in the range of 30 to 70%.

Consider `CO[C@@H](C)c1nnc2cnc(-c3ccc(O[C@@H](C4CC4)C(F)(F)F)nc3)cn12` (single isomer, unassigned) [Compound I-21], for which the inhibition at 1 µM was under 30%.

In the case of `CO[C@H](C)c1nnc2cnc(-c3ccc(O[C@@H](C4CC4)C(F)(F)F)nc3)cn12` (single isomer, unassigned) [Compound I-22], the inhibition at 1 µM was under 30%.

Consider `CO[C@@H](C)c1nnc2cnc(-c3ccc(O[C@H](C4CC4)C(F)(F)F)nc3)cn12` (single isomer, unassigned) [Compound I-23], for which the inhibition at 1 µM was under 30%.

On to `CO[C@H](C)c1nnc2cnc(-c3ccc(O[C@H](C4CC4)C(F)(F)F)nc3)cn12` (single isomer, unassigned) [Compound I-24], for which the inhibition at 1 µM was under 30%.

In the case of `COC(F)(F)c1nnc2cnc(-c3ccc([C@@H]4CC4(F)F)cc3)cn12` (single isomer, unassigned) [Compound III-3], the inhibition at 1 µM is over 70%.

For the compound `COC(F)(F)c1nnc2cnc(-c3ccc([C@H]4CC4(F)F)cc3)cn12` (single isomer, unassigned) [Compound III-4], the inhibition at 1 µM lay within 30 to 70%.

With `COC(F)(F)c1nnc2cnc(-c3ccc([C@H]4CC4(F)F)cc3C)cn12` (single isomer, unassigned) [Compound III-7], the inhibition at 1 µM was over 70%.

For the compound `COC(F)(F)c1nnc2cnc(-c3ccc([C@@H]4CC4(F)F)cc3C)cn12` (single isomer, unassigned) [Compound III-8], the inhibition at 1 µM is over 70%.

Consider `CCOC(F)(F)c1nnc2cnc(-c3ccc([C@@H](C)OCC(F)(F)F)cc3C)cn12` (single isomer, unassigned) [Compound III-9], for which the inhibition at 1 µM was in the range of 30 to 70%.

With `CCOC(F)(F)c1nnc2cnc(-c3ccc([C@H](C)OCC(F)(F)F)cc3C)cn12` (single isomer, unassigned) [Compound III-10], the inhibition at 1 µM is under 30%.

Consider `FC(F)(F)c1nnc2cnc(-c3ccc(O[C@H](C4CC4)C(F)(F)F)nc3)cn12` (single isomer, unassigned) [Compound III-14], for which the inhibition at 1 µM was in the range of 30 to 70%.

On to `COC(F)(F)c1nnc2cnc(-c3ccc([C@@H](C)OCC(F)(F)F)cc3)cn12` (single isomer, unassigned) [Compound III-17], for which the inhibition at 1 µM was under 30%.

`COC(F)(F)c1nnc2cnc(-c3ccc([C@H](C)OCC(F)(F)F)cc3)cn12` (single isomer, unassigned) [Compound III-18]: the inhibition at 1 µM was under 30%.

Consider `CCOC(F)(F)c1nnc2cnc(-c3ccc([C@@H](C)OCC(F)(F)F)cc3)cn12` (single isomer, unassigned) [Compound III-19], for which the inhibition at 1 µM was under 30%.

In the case of `CCOC(F)(F)c1nnc2cnc(-c3ccc([C@H](C)OCC(F)(F)F)cc3)cn12` (single isomer, unassigned) [Compound III-20], the inhibition at 1 µM was in the range of 30 to 70%.

`CCO[C@@H](C)c1nnc2cnc(-c3cnc(OC4(C(F)(F)F)CCC4)c(F)c3)cn12` [Compound I-7, (S)-3-(1-ethoxyethyl)-6-(5-fluoro-6-(1-(trifluoromethyl)cyclobutoxy)pyridin-3-yl)-[1,2,4]triazolo[4,3-a]pyrazine]: the inhibition at 1 µM lay within 30 to 70%.

Regarding `CCO[C@@H](C)c1nnc2cnc(-c3ccc(OC(C)(C)C(F)(F)F)nc3)cn12` [Compound I-8, (S)-3-(1-ethoxyethyl)-6-(6-((1,1,1-trifluoro-2-methylpropan-2-yl)oxy)pyridin-3-yl)-[1,2,4]triazolo[4,3-a]pyrazine], the inhibition at 1 µM lay within 30 to 70%.

For the compound `CCO[C@@H](C)c1nnc2cnc(-c3ccc(OC4(C(F)(F)F)CCC4)nc3)cn12` [Compound I-11, (S)-3-(1-ethoxyethyl)-6-(6-(1-(trifluoromethyl)cyclobutoxy)pyridin-3-yl)-[1,2,4]triazolo[4,3-a]pyrazine], the inhibition at 1 µM was 30 to 70%.

As for `CCO[C@@H](C)c1nnc2cnc(-c3cnc(OC(C)(C)C(F)(F)F)c(F)c3)cn12` [Compound I-12, 6-[5-fluoro-6-(2,2,2-trifluoro-1,1-dimethyl-ethoxy)-3-pyridyl]-3-[(1S)-1-ethoxyethyl]-[1,2,4]triazolo[4,3-a]pyrazine], the inhibition at 1 µM lay in the range of 30 to 70%.

Turning to `CCO[C@H](C)c1nnc2cnc(-c3cnc(OC(C)(C)C(F)(F)F)c(F)c3)cn12` [Compound I-13, (R)-3-(1-ethoxyethyl)-6-(5-fluoro-6-((1,1,1-trifluoro-2-methylpropan-2-yl)oxy)pyridin-3-yl)-[1,2,4]triazolo[4,3-a]pyrazine], the inhibition at 1 µM was 30 to 70%.
